From US7105554B2, “Benzylidene thiazolidinediones and their use as antimycotic agents” (priority 2000, dated 2006)

Legend:
[1] = test system: Candida albicans (strain SC5314); assay: G418 Sensitivity Assay; format: cell-based; settings: concentration giving 50% reduction in cell growth relative to culture with G418 alone, strain SC5314, overnight at 37° C., OD600 nm, 1% DMSO
Procedure: This assay is based upon the observed increased sensitivity of the pmt1−/− Candida strain to Geneticin (G418) (6). 100 μl of a 0.1 OD600 nm culture of Candida albicans (strain SC5314) is placed into a 96 well plate in the presence or absence of varying concentrations of test compound. The compounds are initially dissolved in DMSO and added to the cultures at a final DMSO concentration of 1%. G418 is added to a final concentration of 100 [2 g/ml. In the absence of PMT1 inhibition, this concentration of G418 has no effect on the proliferation of the organism. The cultures are grown overnight at 37° C. and cell density is then estimated by an OD600 nm measurement. The effect of the test compound is calculated as the concentration that gives a 50% reduction in cell growth relative to the culture with G418 alone.

[2] = biological target: T1, Candida albicans PMT-1 enzyme (Candida albicans, UniProt O74189); assay: PMT-1 Assay; format: biochemical; settings: transfer of [3H]-mannose from dolicholphosphomannose to peptide DYATAV, Candida albicans membrane protein, 60 minutes at 25° C., pH 8.0; read-out: PMT-1 Inhibition (IC50, microM)
T1 construct: 25 μg of Candida albicans membrane protein; endogenous in cells
T1 sequence (O74189 whole entry): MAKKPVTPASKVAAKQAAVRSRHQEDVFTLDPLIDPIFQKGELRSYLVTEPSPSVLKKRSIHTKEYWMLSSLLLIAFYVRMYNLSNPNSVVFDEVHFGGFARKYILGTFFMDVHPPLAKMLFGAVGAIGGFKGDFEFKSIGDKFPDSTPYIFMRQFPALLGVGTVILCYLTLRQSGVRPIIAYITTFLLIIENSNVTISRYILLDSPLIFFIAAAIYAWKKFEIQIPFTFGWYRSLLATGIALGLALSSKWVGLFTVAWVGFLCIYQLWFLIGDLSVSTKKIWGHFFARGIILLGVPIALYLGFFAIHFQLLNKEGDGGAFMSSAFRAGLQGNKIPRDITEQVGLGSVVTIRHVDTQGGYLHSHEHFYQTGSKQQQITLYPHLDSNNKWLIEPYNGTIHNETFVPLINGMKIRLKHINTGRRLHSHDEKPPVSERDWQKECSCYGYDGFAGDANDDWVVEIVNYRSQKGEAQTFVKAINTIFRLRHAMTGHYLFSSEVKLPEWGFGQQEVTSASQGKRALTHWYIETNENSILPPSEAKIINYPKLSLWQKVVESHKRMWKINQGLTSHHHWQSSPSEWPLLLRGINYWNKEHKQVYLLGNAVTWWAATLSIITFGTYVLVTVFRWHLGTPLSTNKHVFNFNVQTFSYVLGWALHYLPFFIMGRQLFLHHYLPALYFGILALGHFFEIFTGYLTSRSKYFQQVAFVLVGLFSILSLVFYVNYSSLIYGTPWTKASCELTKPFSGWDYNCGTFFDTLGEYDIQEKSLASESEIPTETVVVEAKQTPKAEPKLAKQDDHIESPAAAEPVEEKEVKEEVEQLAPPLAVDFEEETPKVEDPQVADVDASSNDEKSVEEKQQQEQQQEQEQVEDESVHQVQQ
T1 sequence (Q5ADM9 whole entry, further chain): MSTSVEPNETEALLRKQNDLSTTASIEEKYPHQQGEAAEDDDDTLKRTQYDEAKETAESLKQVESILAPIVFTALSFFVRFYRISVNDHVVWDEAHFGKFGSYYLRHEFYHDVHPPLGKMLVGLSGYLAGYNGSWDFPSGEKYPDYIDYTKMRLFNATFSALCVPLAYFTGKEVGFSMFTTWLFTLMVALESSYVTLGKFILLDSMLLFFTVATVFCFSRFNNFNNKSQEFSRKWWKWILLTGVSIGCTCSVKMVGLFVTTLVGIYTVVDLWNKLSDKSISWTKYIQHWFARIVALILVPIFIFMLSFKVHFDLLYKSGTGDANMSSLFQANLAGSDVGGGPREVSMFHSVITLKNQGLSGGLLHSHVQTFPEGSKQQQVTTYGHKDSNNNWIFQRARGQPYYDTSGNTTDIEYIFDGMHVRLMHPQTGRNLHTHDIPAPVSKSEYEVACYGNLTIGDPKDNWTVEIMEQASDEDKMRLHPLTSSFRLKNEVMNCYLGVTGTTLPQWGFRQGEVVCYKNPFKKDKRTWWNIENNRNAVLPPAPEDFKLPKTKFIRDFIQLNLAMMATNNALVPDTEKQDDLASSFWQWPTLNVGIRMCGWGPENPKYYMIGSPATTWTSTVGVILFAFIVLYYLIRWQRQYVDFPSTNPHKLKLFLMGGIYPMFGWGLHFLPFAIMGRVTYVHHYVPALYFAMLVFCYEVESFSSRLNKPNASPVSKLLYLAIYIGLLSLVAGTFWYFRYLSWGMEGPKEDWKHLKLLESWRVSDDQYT
Procedure: The assay method is based upon the transfer of a radiolabelled mannose moiety from dolicholphosphomannose onto a threonine hydroxyl residue in a short peptide, as catalysed by the Candida albicans PMT-1 enzyme. Dolicholphospho-[^3H]-mannose is synthesised enzymatically from GDP-[^3H]-mannose and purified by chloroform:methanol extraction.
100000 Dpm of the generated substrate is incubated with 400 μg phosphatidylcholine, 25 μg of peptide (DYATAV) and 25 μg of Candida albicans membrane protein in a final volume of 50 μl in 100 mM Tris/1 mM MgCl2 buffer, pH 8.0. After 60 minutes at 25° C., the reaction is stopped with 50 μl of methanol. The unreacted radiolabel is removed by the addition of 150 μl of 0.4 g/ml octadecyl-functionalised silica (C18) in methanol. The C18 material is removed by centrifugation and the activity transferred to the peptide is counted in the supernatant.

| melting point | Structure (SMILES) | IC50 [1] | IC50 [2] |
| --- | --- | --- | --- |
| 235 to 238 °C | O=C(O)CN1C(=O)/C(=C/c2ccc(OCc3ccccc3)c(OCc3ccccc3)c2)SC1=S [Example 29, 5-[[3,4-bis(phenylmethoxy)phenyl]methylene]-4-oxo-2-thioxo-3-thiazolidineacetic acid] |  |  |
|  | O=C(O)CN1C(=O)/C(=C/c2ccc(OCc3cccc(C(F)(F)F)c3)c(OCc3ccccc3)c2)SC1=S [Example 39, 5-[[3-(Phenylmethoxy)-4-[(3-trifluoromethylphenyl)methoxy]phenyl]-methylene]-4-oxo-2-thioxo-3-thiazolidineacetic acid] | 650 nM | 2 µM |
|  | O=C(O)CN1C(=O)/C(=C/c2ccc(OCc3ccc(OC(F)(F)F)cc3)c(OCc3ccccc3)c2)SC1=S [Example 42, 5-[[3-(Phenylmethoxy)-4-[(4-trifluoromethoxyphenyl)methoxy]-phenyl]-methylene]-4-oxo-2-thioxo-3-thiazolidineacetic acid] | 350 nM | 1 µM |
|  | O=C(O)CN1C(=O)/C(=C/c2ccc(OCc3ccc(Cl)cc3)c(OCc3ccccc3)c2)SC1=S [Example 44, 5-[[4-[(4-Chlorophenyl)methoxy] 3-(phenylmethoxy)phenyl]-methylene]-4-oxo-2-thioxo-3-thiazolidineacetic acid] | 600 nM | 1 µM |
| 73 to 80 °C | C[C@H](COc1ccc(/C=C2\SC(=S)N(CC(=O)O)C2=O)cc1O[C@@H](c1ccccc1)C(F)(F)F)c1ccccc1 [Example 60, 5-[[3-[(S)-1-Phenyl-2,2,2-trifluoroethoxy]-4-[(S)-2-phenylpropoxy]-phenyl]methylene]-4-oxo-2-thioxo-3-thiazolidineacetic acid] |  |  |
